In PubChem BioAssay (NCI):
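Each compound was tested at five concentrations against cells in 96-well plates for 48 hours. TGI: total growth inhibition.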

Assays:
Assay in all cases: NCI-60 cell line screen, 48 h
HL-60(TB) leukemia = tested on: HL-60(TB) leukemia
CAKI-1 renal = tested on: CAKI-1 renal
SNB-19 CNS = tested on: SNB-19 CNS
PC-3 prostate = tested on: PC-3 prostate
SF-295 CNS = tested on: SF-295 CNS
HS 578T breast = tested on: HS 578T breast
LOX IMVI melanoma = tested on: LOX IMVI melanoma
HCC-2998 colon = tested on: HCC-2998 colon
NCI-H23 lung = tested on: NCI-H23 lung
SK-MEL-28 melanoma = tested on: SK-MEL-28 melanoma
BT-549 breast = tested on: BT-549 breast
RPMI-8226 leukemia = tested on: RPMI-8226 leukemia
HOP-62 NSCLC = tested on: HOP-62 NSCLC
NCI-H460 lung = tested on: NCI-H460 lung
NCI-H226 lung = tested on: NCI-H226 lung
TK-10 renal = tested on: TK-10 renal
A498 renal = tested on: A498 renal
IGROV1 ovarian = tested on: IGROV1 ovarian
SF-539 CNS = tested on: SF-539 CNS
U251 CNS = tested on: U251 CNS
M14 melanoma = tested on: M14 melanoma
OVCAR-5 ovarian = tested on: OVCAR-5 ovarian
SF-268 CNS = tested on: SF-268 CNS
MDA-MB-435 = tested on: MDA-MB-435
K-562 leukemia = tested on: K-562 leukemia
UACC-62 melanoma = tested on: UACC-62 melanoma
CCRF-CEM leukemia = tested on: CCRF-CEM leukemia
DU-145 prostate = tested on: DU-145 prostate
MALME-3M melanoma = tested on: MALME-3M melanoma
SK-MEL-5 melanoma = tested on: SK-MEL-5 melanoma
UACC-257 melanoma = tested on: UACC-257 melanoma
COLO 205 colon = tested on: COLO 205 colon
HCT-116 colon = tested on: HCT-116 colon
SN12C renal = tested on: SN12C renal
RXF 393 renal = tested on: RXF 393 renal
A549 NSCLC = tested on: A549 NSCLC
HCT-15 colon = tested on: HCT-15 colon
HOP-92 NSCLC = tested on: HOP-92 NSCLC
MDA-MB-231 breast = tested on: MDA-MB-231 breast
SR leukemia = tested on: SR leukemia
786-0 renal = tested on: 786-0 renal
NCI-H522 lung = tested on: NCI-H522 lung
ACHN renal = tested on: ACHN renal
SW-620 colon = tested on: SW-620 colon
OVCAR-4 ovarian = tested on: OVCAR-4 ovarian
OVCAR-3 ovarian = tested on: OVCAR-3 ovarian
HT29 colon = tested on: HT29 colon
OVCAR-8 ovarian = tested on: OVCAR-8 ovarian
T-47D breast = tested on: T-47D breast
MDA-N = tested on: MDA-N
MOLT-4 leukemia = tested on: MOLT-4 leukemia
EKVX NSCLC = tested on: EKVX NSCLC
SK-MEL-2 melanoma = tested on: SK-MEL-2 melanoma
SNB-75 CNS = tested on: SNB-75 CNS
SK-OV-3 ovarian = tested on: SK-OV-3 ovarian
UO-31 renal = tested on: UO-31 renal
KM12 colon = tested on: KM12 colon

Q: How did the TGI (HL-60(TB) leukemia) turn out when `CN(C)c1ccc2oc(=O)c3ccccc3c2c1` was run?
A: > 100 µM

Q: And the TGI (CAKI-1 renal)?
A: > 100 µM

Q: What about the TGI (SNB-19 CNS) of the same compound?
A: 70.2 µM

Q: And the TGI (PC-3 prostate)?
A: > 100 µM

Q: And the TGI (SF-295 CNS)?
A: > 100 µM

Q: What about the TGI (HS 578T breast) of the same compound?
A: 92 µM

Q: What about the TGI (LOX IMVI melanoma) of the same compound?
A: > 100 µM

Q: What about the TGI (HCC-2998 colon) of the same compound?
A: > 100 µM

Q: And the TGI (NCI-H23 lung)?
A: 64.2 µM

Q: What about the TGI (SK-MEL-28 melanoma) of the same compound?
A: > 100 µM

Q: And the TGI (BT-549 breast)?
A: > 100 µM

Q: What about the TGI (RPMI-8226 leukemia) of the same compound?
A: > 100 µM

Q: What about the TGI (HOP-62 NSCLC) of the same compound?
A: 80.5 µM

Q: And the TGI (NCI-H460 lung)?
A: > 100 µM

Q: What about the TGI (NCI-H226 lung) of the same compound?
A: > 100 µM

Q: What about the TGI (TK-10 renal) of the same compound?
A: > 100 µM

Q: What about the TGI (A498 renal) of the same compound?
A: > 100 µM

Q: And the TGI (IGROV1 ovarian)?
A: > 100 µM

Q: And the TGI (SF-539 CNS)?
A: > 100 µM

Q: And the TGI (U251 CNS)?
A: 58.7 µM

Q: And the TGI (M14 melanoma)?
A: > 100 µM

Q: And the TGI (OVCAR-5 ovarian)?
A: > 100 µM

Q: And the TGI (SF-268 CNS)?
A: > 100 µM

Q: What about the TGI (MDA-MB-435) of the same compound?
A: > 100 µM

Q: And the TGI (K-562 leukemia)?
A: > 100 µM

Q: What about the TGI (UACC-62 melanoma) of the same compound?
A: > 100 µM

Q: What about the TGI (CCRF-CEM leukemia) of the same compound?
A: > 100 µM

Q: What about the TGI (DU-145 prostate) of the same compound?
A: > 100 µM

Q: What about the TGI (MALME-3M melanoma) of the same compound?
A: > 100 µM

Q: What about the TGI (SK-MEL-5 melanoma) of the same compound?
A: > 100 µM

Q: What about the TGI (UACC-257 melanoma) of the same compound?
A: > 100 µM

Q: And the TGI (COLO 205 colon)?
A: > 100 µM

Q: What about the TGI (HCT-116 colon) of the same compound?
A: > 100 µM

Q: And the TGI (SN12C renal)?
A: > 100 µM

Q: What about the TGI (RXF 393 renal) of the same compound?
A: 78.9 µM

Q: What about the TGI (A549 NSCLC) of the same compound?
A: > 100 µM

Q: What about the TGI (HCT-15 colon) of the same compound?
A: > 100 µM

Q: And the TGI (HOP-92 NSCLC)?
A: > 100 µM

Q: What about the TGI (MDA-MB-231 breast) of the same compound?
A: 82.9 µM

Q: What about the TGI (SR leukemia) of the same compound?
A: > 100 µM

Q: What about the TGI (786-0 renal) of the same compound?
A: 79.6 µM

Q: And the TGI (NCI-H522 lung)?
A: > 100 µM

Q: What about the TGI (ACHN renal) of the same compound?
A: 62.9 µM

Q: And the TGI (SW-620 colon)?
A: > 100 µM

Q: What about the TGI (OVCAR-4 ovarian) of the same compound?
A: > 100 µM

Q: And the TGI (OVCAR-3 ovarian)?
A: > 100 µM

Q: What about the TGI (HT29 colon) of the same compound?
A: > 100 µM

Q: And the TGI (OVCAR-8 ovarian)?
A: > 100 µM

Q: And the TGI (T-47D breast)?
A: > 100 µM

Q: And the TGI (MDA-N)?
A: > 100 µM

Q: What about the TGI (MOLT-4 leukemia) of the same compound?
A: > 100 µM

Q: And the TGI (EKVX NSCLC)?
A: > 100 µM

Q: What about the TGI (SK-MEL-2 melanoma) of the same compound?
A: 84.1 µM

Q: And the TGI (SNB-75 CNS)?
A: 61.8 µM

Q: Which TGI (HL-60(TB) leukemia) does the source give for `NNC(=S)NCCNC(=S)NN` here?
A: > 100 µM

Q: And the TGI (CAKI-1 renal)?
A: > 100 µM

Q: And the TGI (SNB-19 CNS)?
A: > 100 µM

Q: And the TGI (PC-3 prostate)?
A: > 100 µM

Q: What about the TGI (SF-295 CNS) of the same compound?
A: > 100 µM

Q: What about the TGI (HS 578T breast) of the same compound?
A: > 100 µM

Q: What about the TGI (LOX IMVI melanoma) of the same compound?
A: > 100 µM

Q: And the TGI (SK-OV-3 ovarian)?
A: > 100 µM

Q: What about the TGI (HCC-2998 colon) of the same compound?
A: > 100 µM

Q: What about the TGI (NCI-H23 lung) of the same compound?
A: > 100 µM

Q: What about the TGI (SK-MEL-28 melanoma) of the same compound?
A: > 100 µM

Q: What about the TGI (BT-549 breast) of the same compound?
A: > 100 µM

Q: What about the TGI (RPMI-8226 leukemia) of the same compound?
A: > 100 µM

Q: And the TGI (HOP-62 NSCLC)?
A: > 100 µM

Q: What about the TGI (NCI-H460 lung) of the same compound?
A: > 100 µM

Q: And the TGI (UO-31 renal)?
A: > 100 µM

Q: And the TGI (IGROV1 ovarian)?
A: > 100 µM

Q: And the TGI (U251 CNS)?
A: > 100 µM

Q: What about the TGI (M14 melanoma) of the same compound?
A: > 100 µM

Q: And the TGI (OVCAR-5 ovarian)?
A: > 100 µM

Q: And the TGI (SF-268 CNS)?
A: > 100 µM

Q: And the TGI (MDA-MB-435)?
A: > 100 µM

Q: And the TGI (UACC-62 melanoma)?
A: > 100 µM

Q: And the TGI (CCRF-CEM leukemia)?
A: > 100 µM

Q: What about the TGI (DU-145 prostate) of the same compound?
A: > 100 µM

Q: And the TGI (MALME-3M melanoma)?
A: > 100 µM

Q: What about the TGI (SK-MEL-5 melanoma) of the same compound?
A: > 100 µM

Q: What about the TGI (UACC-257 melanoma) of the same compound?
A: > 100 µM

Q: What about the TGI (COLO 205 colon) of the same compound?
A: > 100 µM

Q: And the TGI (HCT-116 colon)?
A: > 100 µM

Q: What about the TGI (SN12C renal) of the same compound?
A: > 100 µM

Q: And the TGI (A549 NSCLC)?
A: > 100 µM

Q: What about the TGI (MDA-MB-231 breast) of the same compound?
A: > 100 µM

Q: What about the TGI (SR leukemia) of the same compound?
A: > 100 µM

Q: What about the TGI (786-0 renal) of the same compound?
A: > 100 µM

Q: And the TGI (NCI-H522 lung)?
A: > 100 µM

Q: What about the TGI (ACHN renal) of the same compound?
A: > 100 µM

Q: And the TGI (SW-620 colon)?
A: > 100 µM

Q: And the TGI (OVCAR-4 ovarian)?
A: > 100 µM

Q: And the TGI (OVCAR-3 ovarian)?
A: > 100 µM

Q: What about the TGI (KM12 colon) of the same compound?
A: > 100 µM

Q: And the TGI (HT29 colon)?
A: > 100 µM

Q: And the TGI (T-47D breast)?
A: > 100 µM

Q: What about the TGI (MDA-N) of the same compound?
A: > 100 µM

Q: And the TGI (MOLT-4 leukemia)?
A: > 100 µM

Q: And the TGI (EKVX NSCLC)?
A: > 100 µM

Q: And the TGI (SK-MEL-2 melanoma)?
A: > 100 µM

Q: What about the TGI (SNB-75 CNS) of the same compound?
A: > 100 µM
